# Results: patent US11452731B2, “Method of treating and preventing loss of cognition” (ENDORECHERCHE, INC., priority 2009, dated 2022)
# Where a name gives a salt, the structure may show the parent alone. Marks after values point to notes of the source that are not given here.
# What was measured:
# human Ishikawa cells = test: Alkaline phosphatase activity in human endometrial adenocarcinoma Ishikawa cells (Example 6); conditions: for Emax: read-out: Maximal stimulation of alkaline phosphatase % of 1 nM E2 stimulation
# [1] = 5-week treatment of ovariectomized rats with SERMs alone or with DHEA: BMD of lumbar spine, femur, tibia (Example 5); type: in vivo, rat; conditions: OVX rats, 5 weeks
# Method: (§1) Ten to twelve week-old female Sprague-Dawley rats (Crl:CD(SD)Br) (Charles River Laboratory, St-Constant, Canada) weighing approximately 220-270 g at start of treatment were used. The animals were acclimatized to the environmental conditions (temperature: 22±3° C.; humidity: 50±20%; 12-h light-12-h dark cycles, lights on at 07:15 h) for at least 1 week before starting the experiments. The animals were housed individually and were allowed free access to tap water and a pelleted certified rodent feed (Lab Diet 5002, Ralston Purina, St-Louis, Mo.). Experiments were conducted in an animal facility approved by the Canadian Council on Animal Care (CCAC) and the Association for Assessment and Accreditation of Laboratory Animal Care (AAALAC) in accordance with the CCAC Guide for Care and Use of Experimental Animals.
# On day 1 of the study, the animals of the appropriate groups were bilaterally ovariectomized (Ovx) under isoflurane anesthesia. The DHEA was applied topically on the dorsal skin as a solution in 50% ethanol-50% propylene glycol while the tested SERMs were administered as suspension in 0.4% methylcellulose by oral gavage. Treatments were initiated on day 2 of the study and were performed once daily during 5 weeks.
# After 5 weeks of treatment, individual rats under Isoflurane anesthesia had their lumbar spine, femur and tibia scanned using dual energy x-ray absorptiometry (DEXA; QDR 4500A, Hologic, Waltham, Mass.) and a Regional High Resolution Scan software. The bone mineral density (BMD) of the lumbar spine (vertebrae L2 to L4), distal femoral metaphysis (DFM) and proximal tibial metaphysis (PTM) were determined.
# [2] = 3-month treatment of ovariectomized rats: lumbar spine BMD, total body fat, serum cholesterol, ALP (Example 4, experiment 1); type: in vivo, rat; conditions: OVX rats, 3 months
# Method: as §1
# On day 1 of the study, the animals of the appropriate groups were bilaterally ovariectomized (OVX) under isoflurane anesthesia. The DHEA was applied topically on the dorsal skin as a solution in 50% ethanol-50% propylene glycol while the other tested compounds were administered as suspension in 0.4% methylcellulose by oral gavage. Treatments were initiated on day 2 of the study and were performed once daily during 3 months.
# After 3 months (experiment 1) or 26 weeks (experiment 2) of treatment, individual rats under Isoflurane anesthesia had their whole body skeleton and lumbar spine scanned using dual energy x-ray absorptiometry (DEXA; QDR 4500A, Hologic, Waltham, Mass.) and a Regional High Resolution Scan software. The bone mineral density (BMD) of the lumbar spine (vertebrae L2 to L4) and the total body composition (fat percentage) were determined.
# After 3 months (experiment 1) or 26 weeks (experiment 2) of treatment, blood samples were collected at the jugular vein from overnight fasted animals (under Isoflurane anesthesia). Samples were processed for serum preparation and frozen at −80° C. until assay. Serum cholesterol levels and alkaline phospatase activity (ALP) were determined using the Boehringer Mannheim Diagnostic Hitachi 911 Analyzer (Boehringer Mannheim Diagnostic Laboratory Systems).
# [3] = Endometrial epithelium thickness in OVX nude mice after 161 days of antiestrogen (Example 8); type: in vivo
# Excerpt: The 17 groups included two control groups (OVX and OVX+Estrone), seven groups supplemented with an estrone implant and treated with an antiestrogen and eight other groups that received an antiestrogen alone. The estrone implants were then removed from the animals in the ovariectomized control group (OVX) and in groups that were to receive the antiestrogen alone. […] Tamoxifen was purchased from […]) while toremifene citrate was purchased from Orion (Espoo, Finland). […] The antiestrogen suspensions at the appropriate concentration were prepared each month, stored at 4° C. and used under constant agitation. Powder stock were hermetically stored at 4° C. […] After 161 days of treatment, the remaining animals were anesthetized with isoflurane and killed by exsanguination. […] The uteri were prepared to evaluate endometrial thickness by image analysis performed with Image Pro-Plus (Media Cybernetics, Maryland, USA). […] Hematoxylin- and eosin-stained sections of mice uteri were analyzed. […] Mean epithelial cell height was measured in all animals of each group.
# [4] = tested on: ZR-75-1 human breast cancer xenografts; test: Growth and response of human ZR-75-1 breast tumors in OVX nude mice, 7 antiestrogens for 161 days with or without estrone (Example 8); type: in vivo
# Method: ZR-75-1 human breast cancer cells were obtained from the American Type Culture Collection (Rockville, Md.) and cultured in phenol red-free RPMI-1640 medium. […] (Saint-Constant, Québec, Canada). The mice (5 per cage) were housed in vinyl cages equipped with air filter lids, which were kept in laminar airflow hoods and maintained under pathogen-limiting conditions. The photoperiod was 12 hours of light and 12 hours of darkness (lights on at 07:15). Cages, bedding and food (Agway Pro-Lab R-M-H Diet #4018) were autoclaved before use. Water was autoclaved and provided ad libitum. Bilateral ovariectomy was performed under isoflurane-induced anesthesia. […] Randomization and treatments were started one week later. […] The estrone implants were then removed from the animals in the ovariectomized control group (OVX) and in groups that were to receive the antiestrogen alone. […] Tamoxifen was purchased from […]) while toremifene citrate was purchased from Orion (Espoo, Finland). […] The antiestrogen suspensions at the appropriate concentration were prepared each month, stored at 4° C. and used under constant agitation. Powder stock were hermetically stored at 4° C. […] Two perpendicular diameters were recorded and tumor area (mm2) was calculated using the formula: […] Tumor response was assessed at the end of the study or at death of each animal, if it occurred during the course of the experiment. In this case, only data of mice that survived for at least half of the study ([…]) were used in the tumor response analysis.
# [5] = tested on: ZR-75-1 human breast cancer xenografts; test: Growth and response of human ZR-75-1 breast tumor xenografts in estrone-supplemented OVX nude mice, DHEA and/or EM-800 for 9.5 months (Example 1); type: in vivo
# [6] = Uterine and vaginal weight in ovariectomized BALB/c mice treated orally for 9 days with or without estrone (Example 3); type: in vivo; conditions: OVX + E1 alone
# Method: Female BALB/c mice (BALB/cAnNCrlBR) weighing 18-20 g were obtained from Charles-River, Inc. (St-Constant, Quebec, Canada) and housed 5 per cage in a temperature (23±1° C.)- and light (12 h light/day, lights on at 7:15)-controlled environment. The mice were fed rodent chow and tap water ad libitum. The animals were ovariectomized (OVX) under Isoflurane anesthesia via bilateral flank incisions and randomly assigned to groups of 10 animals. Ten mice were kept intact as controls.
# In the second experiment (Table 6), TSE 424 was administered orally by gavage once daily at doses of 1, 3, 10 or 30 μg/animal for 9 days, starting 2 days after ovariectomy. In both experiments, to evaluate the antiestrogenic activity, treatment with estrone (E1, […], s.c. injection, twice daily) was started 5 days post-ovariectomy and was administered for a 6 day-period. Compounds were dissolved in ethanol (4% final concentration) and administered in 0.4% methylcellulose. Mice in the intact and OVX control groups received the vehicle alone (4% ETOH-0.4% methylcellulose) during the 9-day period. The animals were killed by exsanguination at the abdominal aorta on the 11th morning following ovariectomy. The uteri and vagina were rapidly dissected, weighed, and kept in 10% buffered formalin for further histologic examination.
# [7] = Uterine, vaginal and body weight in estrone-supplemented OVX nude mice (Example 1); type: in vivo; conditions: estrone alone
# Method: DHEA was dissolved in 50% ethanol 50% propylene glycol. […] Tumors were measured once a week with Vernier calipers.
# [8] = 12-month treatment of ovariectomized rats with DHEA alone or with Flutamide or EM-800: bone histomorphometry, bone markers, serum lipids; type: in vivo, rat; conditions: added to DHEA, OVX rats, 12 months
# [9] = 26-week treatment of ovariectomized rats: lumbar spine BMD, total body fat, serum cholesterol, ALP (Example 4, experiment 2); type: in vivo, rat; conditions: OVX rats, 26 weeks
# Method: Ten to twelve week-old female Sprague-Dawley rats (Crl:CD(SD)Br) (Charles River Laboratory, St-Constant, Canada) weighing approximately 220-270 g at start of treatment were used. […] The animals were housed individually and were allowed free access to tap water and a pelleted certified rodent feed (Lab Diet 5002, Ralston Purina, St-Louis, Mo.). Experiments were conducted in an animal facility approved by the Canadian Council on Animal Care (CCAC) and the Association for Assessment and Accreditation of Laboratory Animal Care (AAALAC) in accordance with the CCAC Guide for Care and Use of Experimental Animals. […] Treatments were initiated on day 2 of the study and were performed once daily during 26 weeks. In both experiments, animals not receiving a test article were treated with the appropriate vehicle alone during the same period. […] QDR 4500A, Hologic, Waltham, Mass.) and a Regional High Resolution Scan software. […] Samples were processed for serum preparation and frozen at -80° C. until assay. Serum cholesterol levels and alkaline phospatase activity (ALP) were determined using the Boehringer Mannheim Diagnostic Hitachi 911 Analyzer (Boehringer Mannheim Diagnostic Laboratory Systems).
# [10] = Ishikawa cells, 5-day incubation, 1 nM E2
# [11] = E2 1 mg/kg, EM-652.HCl 2.5 mg/kg, DHEA 80 mg/kg
# [12] = estrone-supplemented, 50 μg daily, 161 days
# [13] = Premarin 0.25 mg/kg, SERMs 2.5 mg/kg
smiles,measurement,setting,value
"Cc1c(-c2ccc(O)cc2)n(Cc2ccc(OCCN3CCCCC3)cc2)c2ccc(O)cc12 [ERA-923, 2-(4-hydroxyphenyl)-3-methyl-1-[[4-[2-(1-piperidinyl)ethoxy]phenyl]methyl]-1H-indol-5-ol]",IC50,"human Ishikawa cells; Homo sapiens, Ishikawa, 120 h, read-out: Inhibition of 1 nM E2-induced stimulation of alkaline phosphatase IC50",5.84 nM
same,Emax,"human Ishikawa cells; Homo sapiens, Ishikawa, 120 h",0.6%
same,Maximal inhibition of 1 nM E2-induced stimulation of alkaline phosphatase,human Ishikawa cells; [10],100.16 (1)
same,DISTAL FEMORAL METAPHYSIS (DFM) BMD,[1],0.2969 ± 0.0029 g/cm^2
same,DISTAL FEMORAL METAPHYSIS (DFM) Prevention of Bone Loss,[1],83%
same,PROXIMAL TIBIAL METAPHYSIS (PFM) BMD,[1],0.2805 ± 0.0034 g/cm^2
same,PROXIMAL TIBIAL METAPHYSIS (PFM) Prevention of Bone Loss,[1],91%
same,LUMBAR SPINE (L2-L4) BMD,"[1]; SERMs 2.5 mg/kg, DHEA 80 mg/kg",0.2214 ± 0.0029 g/cm^2
same,LUMBAR SPINE (L2-L4) Prevention of Bone Loss,"[1]; SERMs 2.5 mg/kg, DHEA 80 mg/kg",78%
CC/C(=C(\c1ccccc1)c1ccc(/C=C/C(=O)O)cc1)c1ccccc1 [GW 5638],ALP (serum alkaline phosphatase activity),[2],72 ± 6 IU/L
same,CHOLESTEROL (serum),[2],1.14 ± 0.08 mmol/L
same,TOTAL FAT,[2],21.9 ± 1.4 %
same,LUMBAR SPINE BMD,[2]; [11],0.2299 ± 0.0060 g/cm^2
same,LUMBAR SPINE Prevention of Bone Loss,[2]; [11],34%
same,Emax,"human Ishikawa cells; Homo sapiens, Ishikawa, 120 h",7.75 ± 5.5%
same,Inhibition of 1 nM E2-induced stimulation of alkaline phosphatase IC50,human Ishikawa cells; [10],No inhibition
same,inhibition of the stimulatory effect of estrone on epithelial height,"[3]; 50 μg daily oral, estrone stimulation",24%
same,"height of uterine epithelial cells, % of the OVX control group value","[3]; 200 μg daily, absence of estrone",121%
same,ENDOMETRIAL EPITHELIUM THICKNESS (μm) ± SEM,"[3]; OVX + E1, antiestrogen 50 μg daily","35.30^b,d ± 0.07 μm"
same,ENDOMETRIAL EPITHELIUM THICKNESS (μm) ± SEM,"[3]; OVX without E1, antiestrogen 200 μg daily",22.22^a ± 0.05 μm
same,increase of average tumor size over baseline (agonistic effect),"[4]; absence of estrone, 200 μg daily, 161 days",did not significantly change
same,average tumor size above pretreatment values,"[4]; estrone-stimulated, 50 μg oral daily, 23 weeks",227%
same,"progressing tumors, % of tumors",[4]; [12],77%
same,"progressing tumors, number of total",[4]; [12],20 of 26
"C[C@]12CC[C@@H]3c4ccc(O)cc4CC[C@H]3[C@@H]1CCC2=O [E1, estrone]",Category of response: Complete (%),[5]; E1 0.5 μg alone,0 (0) %
same,Category of response: Complete (Number),[5]; E1 0.5 μg alone,0 (0)
same,Category of response: Partial (%),[5]; E1 0.5 μg alone,0 (0) %
same,Category of response: Partial (Number),[5]; E1 0.5 μg alone,0 (0)
same,Category of response: Progression (%),[5]; E1 0.5 μg alone,87.5%
same,Category of response: Progression (Number),[5]; E1 0.5 μg alone,14
same,Category of response: Stable (%),[5]; E1 0.5 μg alone,12.5%
same,Category of response: Stable (Number),[5]; E1 0.5 μg alone,2
same,Category of response: Complete (%),"[5]; E1 0.5 μg alone, listed as estrone",0%
same,Average tumor weight at end of experiment,[5]; estrone 0.5 μg alone (control E1-supplemented OVX mice),1.12 ± 0.26 g
same,increase in ZR-75-1 tumor size,"[5]; estrone 0.5 μg s.c. daily alone, 291 days (9.5 months)",9.4 fold
same,UTERINE WEIGHT,[6],118.3 ± 6.0 mg
same,VAGINAL WEIGHT,[6],53.4 ± 2.8 mg
same,UTERINE WEIGHT,[7],132 ± 8 mg
same,VAGINAL WEIGHT,[7],31 ± 2 mg
same,increase in ZR-75-1 tumor size,"[4]; Estrone alone (OVX+E1), 23 weeks",707%
"CC(C)C(=O)Nc1ccc([N+](=O)[O-])c(C(F)(F)F)c1 [FLU, Flutamide]",reversal of the stimulatory effect of DHEA on serum alkaline phosphatase,[8],65%
"Oc1ccc2c(c1)CC[C@H](c1ccccc1)[C@@H]2c1ccc(OCCN2CCCC2)cc1 (racemic) [Lasofoxifene, (−)-cis-(5R,6S)-6-phenyl-5-[4-(2-pyrrolidin-1-ylethoxy)phenyl]-5,6,7,8-tetrahydronaphthalen-2-ol, D-(−)-tartrate salt]",ALP,[9],116 ± 9 IU
same,CHOLESTEROL (serum),[9],0.60 ± 0.02 mmol/L
same,TOTAL FAT,[9],24.1 ± 1.3 %
same,reversal of the fat increase induced by estrogen deficiency,[9],114%
same,LUMBAR SPINE BMD,[9]; [13],0.2307 ± 0.0040 g/cm^2
same,LUMBAR SPINE Prevention of Bone Loss,[9]; [13],61%
